Our source for the RP-LC retention time values is the METLIN SMRT retention time set (Domingo-Almenara et al. 2019).

Molecules are shown by their SMILES.

A short description of the data set: gradient 5% acetonitrile 3 min, to 50% in 2 min, to 85% in 15 min, held 3 min, 100 µL/min. To be noted: column: Zorbax Extend-C18 2.1 x 50 mm; eluents: water / acetonitrile, 0.1% formic acid. The method in brief:
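Pure standards were run in mixtures of ~100 molecules by HPLC coupled to a quadrupole time-of-flight mass spectrometer. The column was a Zorbax Extend-C18 (2.1 × 50 mm, 1.8 μm) at 100 μL/min, with water and acetonitrile each containing 0.1% formic acid, in positive and negative ionization mode. Dead and dwell volumes were 40 μL and 900 μL. Retention time was taken from computationally picked adduct peaks, each manually inspected, with data collected over 3 months.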
`CC(=O)Nc1ccc(-c2nc(-c3ccc4c(c3)oc(=O)n4C)no2)cc1` displayed an RP-LC retention time of 819 s.

Compound `COc1ccc(S(=O)(=O)N2CCC(c3ccncc3)CC2)cc1Cl` had an RP-LC retention time of 667 s.

Compound `O=C(CN1C(=O)NC2(CCCCC2)C1=O)NCc1ccccc1Cl` displayed an RP-LC retention time of 746 s.

`Cc1ccc(C)c(N2CCN(C(=O)Cn3c(=O)c4nncn4c4ncccc43)CC2)c1` displayed an RP-LC retention time of 790 s.

The compound `Cc1ccc(-c2coc(-c3ccc(NC(=O)NCc4cccc(F)c4)cc3)n2)c(C)c1` registered an RP-LC retention time of 1200 s.

`Cc1cccc(N2CCN(C(=O)C3CCCN(c4cc(=O)n(C)c(=O)n4C)C3)CC2)c1C` (stereo not given) came in with an RP-LC retention time of 874 s.

Turning to `CCN(CC)c1nc2cc(C(=O)N3CCN(c4ccccn4)CC3)ccc2c(=O)n1Cc1ccccc1`, the RP-LC retention time amounted to 729 s.

`O=C(c1ccc(Br)o1)N1CC2CN(S(=O)(=O)c3ccccc3)CC(C1)O2` displayed an RP-LC retention time of 781 s.

As for `Cc1ccc(CN2CCN(CC(=O)Nc3ccc(Cl)cn3)C(=O)C2=O)cc1`, the RP-LC retention time was found to be 759 s.

In the case of `Cc1cc(C)cc(NC(=O)N2CCC(n3cnc4ccc(F)cc4c3=O)CC2)c1`, the RP-LC retention time came to 861 s.

With `Cc1nc(-c2csc(S(=O)(=O)N3CCC(C(=O)N4CC=C(c5ccccc5)CC4)CC3)c2)no1`, the RP-LC retention time is 1000 s.

Regarding `COc1ccc(NC(=O)C2CCN(c3nnc4ccccn34)CC2)cc1C(F)(F)F`, the RP-LC retention time was 704 s.

Regarding `Cc1ccc(NC(=O)Cn2cccc2-c2nnc(C3CCC3)o2)cc1F`, the RP-LC retention time was 973 s.

For the compound `CN(Cc1cccn1C)C(=O)NC1CCCCC1`, the RP-LC retention time came out at 836 s.

Take `COCCN1CCC(N2CCCN(C(=O)NCCc3ccccc3)CC2)C1=O` (stereo not given): the RP-LC retention time was determined as 526 s.

For the compound `CC1CCCC(C)N1CCCNC(=O)Cn1ncc2c3ccccc3n(C)c2c1=O` (stereo not given), the RP-LC retention time is 632 s.

`Cc1cc(C)c(C)c(S(=O)(=O)N2CCN(c3nc4ccncc4n(C)c3=O)CC2)c1C` gave an RP-LC retention time of 755 s.

For the compound `O=C1[C@H]2CN(Cc3ccncc3)C[C@H]2C(=O)N1Cc1ccc2c(c1)OCO2`, the RP-LC retention time is 605 s.

`CCCCn1c(=O)c2c(nc3n2CCN3c2ccc(OC)cc2)n(C)c1=O` yielded an RP-LC retention time of 939 s.

`COc1ncc(-c2ccc3nccc(-c4ccnnc4)c3c2)cc1NS(=O)(=O)c1ccc(F)cc1F` showed an RP-LC retention time of 785 s.

In turn, `CCN1CCN(CCCNC(=O)CN2C(=O)C3CCCCN3c3ccc(C(=O)N(C)C)cc32)CC1` (stereo not given) displayed an RP-LC retention time of 579 s.

`Cc1c(F)cccc1NC(=O)N(C)CC1CCOC1` (stereo not given): the RP-LC retention time worked out at 745 s.

In turn, `COc1ccc2nc(C(=O)NCc3cccc(Cl)c3)cn2n1` came in with an RP-LC retention time of 846 s.

The compound `CCOC(=O)C1CCCN(C(=O)CCC2NC(=O)c3ccccc3NC2=O)C1` (stereo not given) displayed an RP-LC retention time of 621 s.

`Cc1nc2cccnc2n1CC1CCCN(S(=O)(=O)Cc2ccc(Cl)cc2)C1` (stereo not given) yielded an RP-LC retention time of 718 s.

On to `Cc1nc(C(=O)N2CC(F)(F)C[C@H]2c2nc(C3CC3)no2)co1`, for which the RP-LC retention time came to 768 s.

Regarding `CCc1nncn1C1CCN(S(=O)(=O)c2ccc(OC)c(OC)c2)CC1`, the RP-LC retention time amounted to 650 s.

The compound `O=C(CCNc1c(-c2ccccc2)nc2cnccn12)NCc1cccc(F)c1` displayed an RP-LC retention time of 698 s.

`Cc1c(C(=O)NC2CCCC2)cnn1-c1cc(-c2nc(C3CC3)no2)ccn1` yielded an RP-LC retention time of 887 s.

Take `CC(=O)OCc1cc(=O)n(C)c2c3c4c(cc12)c(C)cc(=O)n4CO3`: the RP-LC retention time was 669 s.

Take `COC(=O)c1c(NC(=O)CCc2ccc(C)o2)sc(C)c1C`: the RP-LC retention time is 1110 s.

`Cc1ccc(C(=O)N2CCc3nc(-c4ccc(Cl)cc4)ncc3C2)cc1F` returned an RP-LC retention time of 1150 s.

Consider `CCN(Cc1ccccc1)C(=O)Cn1c(N)nc(C)cc1=O`, for which the RP-LC retention time was found to be 596 s.

In the case of `CCN(Cc1ccccc1)C(=O)C1CCCN(S(=O)(=O)c2ccc3c(c2)CCCC(=O)N3)C1` (stereo not given), the RP-LC retention time was determined as 821 s.

On to `CCc1ccc(-n2nc(CO)c(C(=O)NCc3ccc4c(c3)OCO4)n2)cc1`, for which the RP-LC retention time amounted to 1030 s.

Regarding `O=C(Cn1nc(N2CCOCC2)c2ccccc2c1=O)N1CCN(c2ccccc2)CC1`, the RP-LC retention time was 800 s.

As to `O=C1C(=O)N(Cc2ccc(C(=O)N3CCCCCC3)cc2)CCN1Cc1ccc(F)cc1`, the RP-LC retention time was determined as 728 s.

For the compound `CC1CCC(C(=O)Nc2ccc3c(c2)n(C)c(=O)c(=O)n3C)CC1` (stereo not given), the RP-LC retention time worked out at 737 s.

As for `CCN(CC)CCNC(=O)Cn1ncc2c3ccccc3n(Cc3ccccc3)c2c1=O`, the RP-LC retention time turned out to be 605 s.

On to `Cc1ccc(-c2noc(-c3ccc(N4CCN(c5ccccn5)CC4)nc3)n2)cc1`, for which the RP-LC retention time stood at 805 s.

The compound `O=C(CCCSc1ccc(F)cc1)Nc1nnc(Cc2ccc3c(c2)OCO3)o1` displayed an RP-LC retention time of 807 s.

In turn, `Cc1c(NC(=O)Cc2csc(NC(=O)C(C)(C)C)n2)c(=O)n(-c2ccccc2)n1C` registered an RP-LC retention time of 630 s.

As to `COCCCNC(=O)C1CCCN(c2ncnc3c2nc2n3CCCCC2)C1` (stereo not given), the RP-LC retention time worked out at 625 s.

In the case of `CN1C(=O)CS(=O)(=O)C12CCN(C(=O)c1ccc3c(c1)OCO3)CC2`, the RP-LC retention time was determined as 628 s.

`Cc1cccc(OCC(=O)N2CC(CN(C)C)C3(CCOCC3)C2)c1` (stereo not given) showed an RP-LC retention time of 598 s.

Turning to `COc1ccc2nc(NCCn3cccn3)sc2c1`, the RP-LC retention time was 599 s.

For the compound `Cc1nc(CC(=O)Nc2ccc(F)cc2F)cs1`, the RP-LC retention time came out at 739 s.

`COc1ccc(C2CCCCCN2S(C)(=O)=O)cc1` (stereo not given) returned an RP-LC retention time of 932 s.

`O=c1cc(-c2ccccc2)nc2n1CCN2Cc1ccncc1` came in with an RP-LC retention time of 589 s.

Regarding `O=S(=O)(Cc1ccccc1)N1CCCCC1c1noc(COCC2CC2)n1` (stereo not given), the RP-LC retention time worked out at 1050 s.

`CN(C)c1cc(N2CCCC(NC(=O)c3ccnn3C)C2)ncn1` (stereo not given) came in with an RP-LC retention time of 578 s.

The compound `CCc1cc(=O)n(CC(=O)NCc2ccccc2)c(N2CCOCC2)n1` registered an RP-LC retention time of 647 s.

Consider `O=C(NCC1CCOCC1)c1c[nH]c2ccccc12`, for which the RP-LC retention time turned out to be 636 s.

`CCC(=O)N1CCCC1c1nc(CCOCC2CCCC2)no1` (stereo not given) came in with an RP-LC retention time of 837 s.

Consider `O=C(N1CCC(n2nc(-c3ccsc3)ccc2=O)CC1)C1(c2ccccc2)CC1`, for which the RP-LC retention time was 869 s.

In turn, `O=S(=O)(NCCc1csc(-c2cccc(F)c2)n1)c1ccccc1Cl` had an RP-LC retention time of 989 s.

In turn, `CC(NC(=O)c1cccnc1)c1nc(-c2ccccc2)no1` (stereo not given) yielded an RP-LC retention time of 694 s.

`COC[C@@H]1OCCN(S(=O)(=O)c2cccc(OC)c2)[C@H]1c1ccccc1` displayed an RP-LC retention time of 927 s.

For `O=C(O)c1cn(Cc2ccc(F)cc2)c(=O)c2ccccc12`, the RP-LC retention time was 806 s.

Take `Cc1ccc(-c2ccc(-n3nc(C)c(S(=O)(=O)N4CCN(C(C)C)CC4)c3C)nn2)cc1C`: the RP-LC retention time came to 785 s.
